8 compounds from US20090029992A1, “SUBSTITUTED PYRAZOLE COMPOUNDS” (priority 2007, published 2009) can be followed below.

pIC50: −log10 of the molar value.

In experiment [1] the target is T1, N-terminal His6-tagged recombinant human KDR, residues 790-end (Homo sapiens, UniProt P35968).
T1 construct: recombinant human KDR, residues 790-end; His6 (N); purchased Upstate USA Inc, 706 Forest Street, Charlottesville, Va
Kind of experiment: KDR kinase inhibition assay (33P-ATP filter assay). The format is biochemical. The procedure:
(§1) Compounds were assayed for KDR kinase inhibitory activity using N-terminal His6-tagged recombinant human KDR, residues 790-end (Upstate USA Inc, 706 Forest Street, Charlottesville, Va.). Serial dilutions of compound were assayed in a final reaction volume of 25 μL by incubating a solution of the above KDR kinase (5-10 mU), 8 mM MOPS (3-(N-morpholino) propanesulfonic acid) pH 7.0, 0.2 mM EDTA (ethylenediamine tetracetic acid), 0.33 mg/mL myelin basic protein (Upstate USA Inc, 706 Forest Street, Charlottesville, Va.), and 10 mM magnesium acetate and [γ-^33P-ATP] (specific activity of about 500 cpm/μmol, concentration as required). The reaction was initiated by the addition of the magnesium acetate and [γ-^33P-ATP] mixture. After incubation for 40 minutes at room temperature, the reaction was stopped by the addition of 5 μL of a 3% phosphoric acid solution. A 10 μL aliquote of the reaction was then spotted onto a P30 filtermat (PerkinElmer, Wellesley, Mass.) and washed three times for five minutes in 75 mM phosphoric acid and once in methanol prior to drying and scintillation counting. Inhibition of KDR activity was determined by comparison to assays that contained no inhibitor.

Another experiment deals with HCT116 cells. Kind of experiment: Whole cell cytotoxicity assay, Sulforhodamine B. Type of experiment: cell-based. The following applies: Homo sapiens, HCT-116; HCT116, 96 hours incubation, SRB; read-out: IC50 values in this assay (HCT116 cell growth). The procedure: Human tumor-derived cell lines, HCT116 or MCF7 (ATCC) were plated in a 96 well plate in DMEM containing 10% fetal bovine serum and 2 mM L-glutamine at a density of 500 HCT116 cells or 1,000 MCF7 cells per well and incubated at 37° C., 5% CO2, for 24 hours prior to the addition of experimental compounds. Compounds were added using the dilution series indicated to duplicate plates and the cells were incubated in media plus compound for 96 hours. An additional plate was fixed in 10% TCA at the time of the addition of compound to provide a measurement of the cell population at time zero, the time of drug addition. Following the 96 hour incubation, cells were fixed in situ by gently aspirating off the culture media and then adding 50 ul of ice cold 10% TCA per well and incubation at 4° C. for 60 minutes. The plates were washed with tap water five times and allowed to air dry for 5 minute. 50 ul of a 0.4% (w/v) Sulforhodamine B solution in 1% (v/v) acetic acid was added per well and the cells were incubated for 30 minutes at room temperature. Following staining, plates were washed four times with 1% acetic acid to remove any unbound dye and then allowed to air dry for 5 minutes. The stain was solubilized with 100 ul of 10 mM Tris pH 10.5 per well and placed on an orbital rotator for 5 minutes. The absorbance was read at 570 nm. Percentage growth was calculated using the absorbance readings from the time zero plate (Tz) and the dilution series plate […] which included a column of cells grown in media without compound as a control (C) using the formulas:
[(Ti−Tz)/(C−Tz)]×100 for concentrations for which Ti>/=Tz
[(Ti−Tz)/Tz]×100 for concentrations for which Ti<Tz.
Three dose response parameters were calculated for each experimental agent. Growth inhibition of 50% (GI50) was calculated from [(Ti−Tz)/(C−Tz)]×100=50, which was the drug concentration resulting in a 50% reduction in the net protein increase (as measured by SRB staining) in control cells during the drug incubation. The drug concentration resulting in total growth inhibition (TGI) was calculated from Ti=Tz. The LC50 (concentration of drug resulting in a 50% reduction in the measured protein at the end of the drug treatment as compared to that at the beginning) indicating a net loss of cells following treatment ws calculated from [(Ti−Tz)/Tz]×100=−50. Values are calculated for each of these three parameters if the level of activity was reached; however, if the effect was not reached or was exceeded, the value for that parameter is expressed as greater or less than the maximum or minimum concentration tested.

The target of experiment [2] is T2, N-terminal His-tagged human Src (Homo sapiens, UniProt P12931).
T2 construct: His (N); purchased Upstate USA Inc, 706 Forest Street, Charlottesville, Va
T2 sequence (P12931 whole entry): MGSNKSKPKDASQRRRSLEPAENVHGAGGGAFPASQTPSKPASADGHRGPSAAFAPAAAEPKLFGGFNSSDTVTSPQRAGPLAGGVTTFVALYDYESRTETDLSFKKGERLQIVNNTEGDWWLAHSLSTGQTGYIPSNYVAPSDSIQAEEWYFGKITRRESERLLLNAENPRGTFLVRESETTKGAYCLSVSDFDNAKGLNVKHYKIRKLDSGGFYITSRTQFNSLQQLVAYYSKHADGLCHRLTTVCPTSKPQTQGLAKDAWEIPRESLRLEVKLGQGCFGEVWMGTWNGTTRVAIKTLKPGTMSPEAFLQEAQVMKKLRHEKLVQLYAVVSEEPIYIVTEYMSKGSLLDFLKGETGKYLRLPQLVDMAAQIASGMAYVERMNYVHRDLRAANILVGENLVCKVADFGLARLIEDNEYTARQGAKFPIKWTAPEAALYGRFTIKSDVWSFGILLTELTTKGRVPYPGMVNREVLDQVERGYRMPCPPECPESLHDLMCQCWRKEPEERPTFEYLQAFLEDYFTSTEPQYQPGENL
Nature of the experiment: Src kinase inhibition assay (33P-ATP filter assay). The format is biochemical. The procedure:
as §1, with “Src” for “KDR”, “His-tagged” for “His6-tagged recombinant”, “Src” for “KDR, residues 790-end”, “250 μM amino acid sequence KVEKIGEGTYGVVYK” for “0.33 mg/mL myelin basic protein”

The target in the next experiment is T3, recombinant Aurora A (Homo sapiens, UniProt O14965).
T3 construct: purchased Upstate, Lake Placid, N.Y
T3 sequence (O14965 1-403): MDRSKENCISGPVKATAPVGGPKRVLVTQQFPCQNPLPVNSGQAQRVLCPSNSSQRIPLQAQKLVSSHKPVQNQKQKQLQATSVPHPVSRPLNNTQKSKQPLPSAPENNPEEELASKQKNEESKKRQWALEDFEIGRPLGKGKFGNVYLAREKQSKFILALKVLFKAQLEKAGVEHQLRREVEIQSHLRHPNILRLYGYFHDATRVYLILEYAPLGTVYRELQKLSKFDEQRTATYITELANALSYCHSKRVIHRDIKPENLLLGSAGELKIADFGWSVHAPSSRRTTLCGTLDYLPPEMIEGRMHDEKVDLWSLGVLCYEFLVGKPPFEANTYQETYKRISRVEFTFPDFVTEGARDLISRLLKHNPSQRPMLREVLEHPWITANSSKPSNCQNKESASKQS
Kind of experiment: Aurora A (Aurora 2) inhibition assay, Z'-Lyte kinase assay. The format is biochemical. The note with it: ATP 10 μM, 1 h. The procedure:
Compounds were tested for their potency against recombinant Aurora A (Upstate, Lake Placid, N.Y.) using the PanVera Z′-Lyte kinase assay kit—Ser/Thr 1 peptide (Invitrogen, Carlsbad, Calif.). Assays were carried out in kinase assay buffer (50 mM HEPES, pH 7.5, 10 mM MgCl2, 5 mM EGTA, 0.05% Brij-35, 2 mM DTT). Test compounds were initially dissolved in DMSO at 100× the highest tested concentration, then serially diluted to 4× test concentrations in kinase assay buffer. Next, Aurora A (final concentration 200-500 ng/mL), Z′-Lyte Ser/Thr 1 peptide (final concentration 2 μM) and ATP (final concentration 10 μM) were added according to the manufacturer's instructions. Assays were carried out in half-area 96-well white polystyrene assay plates (Corning, Corning, N.Y.) in a final volume of 20 μl. The reaction was allowed to proceed for 1 h at room temperature in the dark, at which point the development reagent and stop reagent were added according to the manufacturer's instructions. Coumarin (Ex. 400 nm, Em. 465 nm) and fluorescein (Ex. 400 nm, Em. 565 nm) fluorescence values were measured on a SpectraFluor Plus plate reader (Tecan, Durham, N.C.). The emission ratio (coumarin/fluorescein) was determined and used to calculate the percent phosphorylation for each well. Wells containing substrate but no kinase and wells containing a phosphopeptide control were used to set 0% and 100% phosphorylation values, respectively. Typically 20-40% of the substrate was phosphorylated in wells without inhibitor. Dose-response curves of relative Aurora A activity vs. inhibitor concentration were plotted with Grafit (Erithacus Software, Horley, Surrey, UK).

Experiment [3] concerns the target T4, N-terminal GST-tagged recombinant human Flt3, residues 564-end (Homo sapiens, UniProt P36888).
T4 construct: recombinant human Flt3, residues 564-end; GST (N); purchased Upstate USA Inc, 706 Forest Street, Charlottesville, Va
T4 sequence (P36888 564-993 limits assumed): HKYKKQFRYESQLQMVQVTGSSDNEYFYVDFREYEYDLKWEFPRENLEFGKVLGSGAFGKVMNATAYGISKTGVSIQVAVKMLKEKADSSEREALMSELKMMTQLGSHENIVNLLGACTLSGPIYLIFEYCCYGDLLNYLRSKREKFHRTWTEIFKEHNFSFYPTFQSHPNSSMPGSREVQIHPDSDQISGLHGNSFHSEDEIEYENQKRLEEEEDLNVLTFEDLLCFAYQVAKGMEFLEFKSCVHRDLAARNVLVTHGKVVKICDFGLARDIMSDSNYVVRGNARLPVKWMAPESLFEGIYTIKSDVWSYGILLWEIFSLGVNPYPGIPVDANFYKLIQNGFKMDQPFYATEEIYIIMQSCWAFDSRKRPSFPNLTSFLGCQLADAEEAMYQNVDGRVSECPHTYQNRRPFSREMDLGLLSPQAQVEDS
Nature of the experiment: Flt3 kinase inhibition assay (33P-ATP filter assay). The format is biochemical. The note with it: 40 minutes at room temperature. The procedure:
as §1, with “Flt3” for “KDR”, “GST-tagged” for “His6-tagged”, “Flt3,” for “KDR,”, “564-end” for “790-end”, “50 μM amino acid sequence EAIYAAPFAKKK” for “0.33 mg/mL myelin basic protein”

Where [4] appears, read: group with IC50 greater than 100 nM.

T1 sequence (P35968 790-1356 limits assumed): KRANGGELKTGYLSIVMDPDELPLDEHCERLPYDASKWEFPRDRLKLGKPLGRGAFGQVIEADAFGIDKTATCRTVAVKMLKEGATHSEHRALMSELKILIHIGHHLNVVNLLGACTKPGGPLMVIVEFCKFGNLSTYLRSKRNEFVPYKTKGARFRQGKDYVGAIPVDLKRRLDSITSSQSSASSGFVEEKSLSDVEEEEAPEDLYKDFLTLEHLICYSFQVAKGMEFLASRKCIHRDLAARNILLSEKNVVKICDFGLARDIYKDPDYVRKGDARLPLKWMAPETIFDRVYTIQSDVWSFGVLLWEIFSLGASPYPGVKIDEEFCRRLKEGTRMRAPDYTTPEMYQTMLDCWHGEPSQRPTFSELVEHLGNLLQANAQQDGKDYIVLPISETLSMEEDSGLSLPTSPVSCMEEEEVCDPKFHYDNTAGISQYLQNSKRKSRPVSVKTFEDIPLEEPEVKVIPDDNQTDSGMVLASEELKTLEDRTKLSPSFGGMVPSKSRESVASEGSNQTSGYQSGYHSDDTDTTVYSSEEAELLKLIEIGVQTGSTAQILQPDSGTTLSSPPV

For `Cc1cc(Nc2cc(N3CCN(C)CC3)nc(-c3ccccc3F)n2)n[nH]1` [Compound 34, 2-(2-fluorophenyl)-N-(5-methyl-1H-pyrazol-3-yl)-6-(4-methylpiperazin-1-yl)pyrimidin-4-amine], the pIC50 (commonly the IC50 on a negative log10 scale, so that one unit is a factor of ten) in experiment [1] (40 minutes at room temperature) is no less than 7.00; with HCT116 cells, 5.00 to 6.00; in experiment [2] (40 minutes at room temperature) it was no less than 7.00; at recombinant Aurora A, no less than 7.00.
As for `Cc1cc(Nc2cc(NC3CCOCC3)nc(-c3ccccc3Cl)n2)n[nH]1` [Compound 24, 2-(2-chlorophenyl)-N^4-(5-methyl-1H-pyrazol-3-yl)-N^6-(tetrahydro-2H-pyran-4-yl)pyrimidine-4,6-diamine], the pIC50 (in experiment [1] (setting [4]); in experiment [2] (setting [4]); on recombinant Aurora A (setting [4])) was no less than 6.00 in each case.
On to `Cc1ccc(C)c(-c2nc(Nc3cc(C)[nH]n3)cc(NC3CCOCC3)n2)c1` [Example 206, 2-(2,5-dimethylphenyl)-N^4-(5-methyl-1H-pyrazol-3-yl)-N^6-(tetrahydro-2H-pyran-4-yl)pyrimidine-4,6-diamine], for which the pIC50 is no less than 6.00 in experiment [1] (setting [4]), no less than 7.00 in experiment [3], no less than 6.00 in experiment [2] (setting [4]) and no less than 6.00 on recombinant Aurora A (setting [4]).
For `Cc1cc(Nc2cc(NC3CCOCC3)nc(-c3cccc4c3OCCO4)n2)n[nH]1` [Compound 129], the pIC50 in experiment [1] (setting [4]) is no less than 6.00; in experiment [3], no less than 7.00; in experiment [2] (setting [4]) it was no less than 6.00; on recombinant Aurora A (setting [4]), no less than 6.00.
With `COCCN(C)c1cc(Nc2cc(C)[nH]n2)nc(-c2cccc(C)c2C)n1` [Example 181, 2-(2,3-dimethylphenyl)-N^4-(2-methoxyethyl)-N^4-methyl-N^6-(5-methyl-1H-pyrazol-3-yl)pyrimidine-4,6-diamine], the negative logarithm of the IC50 (pIC50) was no less than 6.00 in experiment [1] (setting [4]), no less than 7.00 in experiment [3], no less than 6.00 in experiment [2] (setting [4]) and no less than 6.00 at recombinant Aurora A (setting [4]).
`CC(=O)Nc1cccc(-c2nc(Nc3cc(C)[nH]n3)cc(N3CCN(C)CC3)n2)c1` [Example 167, N-(3-(4-(5-methyl-1H-pyrazol-3-ylamino)-6-(4-methylpiperazin-1-yl)pyrimidin-2-yl)phenyl)acetamide]: the pIC50 (in experiment [1] (40 minutes at room temperature); in experiment [3]; in experiment [2] (40 minutes at room temperature); on recombinant Aurora A) was no less than 7.00 each time.
For the compound `Cc1cc(Nc2cc(NC3CCOCC3)nc(-c3cccc(C)c3C)n2)n[nH]1` [Example 180, 2-(2,3-dimethylphenyl)-N^4-(5-methyl-1H-pyrazol-3-yl)-N^6-(tetrahydro-2H-pyran-4-yl)pyrimidine-4,6-diamine], the pIC50 in experiment [1] (40 minutes at room temperature) is no less than 7.00; in experiment [3], no less than 7.00; in experiment [2] (setting [4]) it was no less than 6.00; at recombinant Aurora A (setting [4]), no less than 6.00.
As to `Cc1cc(Nc2cc(N3CCN(C)CC3)nc(-c3cccc(O)c3)n2)n[nH]1` [Example 161, 3-(4-(5-methyl-1H-pyrazol-3-ylamino)-6-(4-methylpiperazin-1-yl)pyrimidin-2-yl)phenol], the negative logarithm of the IC50 (pIC50) (in experiment [1] (40 minutes at room temperature); in experiment [3]; in experiment [2] (40 minutes at room temperature); at recombinant Aurora A) was no less than 7.00 in each case.
